Source: patent US20250032524A1, “BROAD SPECTRUM AMINOGLYCOSIDES AND USES THEREOF” (REVAGENIX, INC., priority 2022, published 2025)
Like-named read-outs stand apart in the source and are kept apart here.

Legend:
Format in all cases: cell-based
E. coli = assay: MIC broth microdilution (CLSI); conditions: Escherichia coli
Method: (§1) Minimum inhibitory concentrations for representative example compounds herein were determined by a broth microdilution method in accordance with the Clinical and Laboratory Standards Institute (CLSI) guidelines. In brief, organism suspensions were adjusted to a 0.5 McFarland standard to yield a final inoculum between 3×10^5 and 7×10^5 colony-forming units (CFU)/mL. The inoculum was prepared by suspension of a colony from an agar plate that was prepared the previous day. Compound dilutions and inoculum were prepared in sterile, cation adjusted Mueller-Hinton Broth (Beckton Dickinson).
(§2) Bacteria were suspended in sterile saline and added to each assay plate to obtain a final concentration of 5×10^5 CFU/mL. An inoculum volume of 100 μL was added to wells containing 100 μL of broth with 2-fold serial dilutions of the test compound. All inoculated microdilution trays were incubated in ambient air at 35° C. for 18-24 hours. Following incubation, the lowest concentration of the compound that prevented visible growth (OD 600 nm<0.05) is recorded was the MIC. […] Performance of the assay was monitored by the use of laboratory quality-control strains and a standard compound with a defined MIC spectrum (neomycin), in accordance with CLSI guidelines.

P. aeruginosa [1] = assay: MIC broth microdilution (CLSI); conditions: Pseudomonas aeruginosa
Method: as §1, §2

A. baumannii = assay: MIC broth microdilution (CLSI); conditions: Acinetobacter baumannii
Method: as §1, §2

P. aeruginosa [2] = assay: Antibacterial surveillance of clinical isolates (MIC50/90); conditions: 103 isolates
Method: as §1, §2
(§3) Several compounds of the disclosure (Compound 1, 2, and 3) were further evaluated against several hundred bacterial isolates (isolated in the United States and Europe, 1:1) selected from the SENTRY Antimicrobial Surveillance Program (JMI Laboratories, North Liberty, Iowa). The set of clinical isolates included 300 randomly selected Enterobacterales, 103 randomly selected P. aeruginosa, 100 randomly selected A. baumannii-calcoaceticus, 20 randomly selected Methicillin-sensitive S. aureus (MSSA), and 30 randomly selected Methicillin-resistant S. aureus (MRSA). In addition, 101 Enterobacterales and 50 P. aeruginosa isolates with genetically defined mechanisms of aminoglycoside resistance were included. The MIC values at which ≥50% (MIC50) and ≥90% (MIC90) of isolates within a given set are inhibited were determined for each compound against each set of organisms.

[3] = system: A. baumannii-calcoaceticus; assay: as above; conditions: 100 isolates
Method: as §1, §2, §3

[4] = system: Methicillin-sensitive S. aureus (MSSA); assay: as above; conditions: 20 isolates
Method: as §1, §2, §3

[5] = system: AG-resistant P. aeruginosa; assay: as above; conditions: 50 isolates with defined aminoglycoside resistance
Method: as §1, §2, §3

[6] = system: Methicillin-resistant S. aureus (MRSA); assay: as above; conditions: 30 isolates
Method: as §1, §2, §3

[7] = system: AG-resistant Enterobacterales; assay: as above; conditions: 101 isolates with defined aminoglycoside resistance
Method: as §1, §2, §3

[8] = read-out: Activity (MIC), strain NECO0003, ΔtolC
[9] = read-out: Activity (MIC), strain NECO0245, ArmA
[10] = strain NECO0001, WT QC, read-out: Activity (MIC)
[11] = strain NECO0002, WT, read-out: Activity (MIC)
[12] = strain NECO0243, empty vector, read-out: Activity (MIC)
[13] = strain NECO0244, AAC(6')-Ib, read-out: Activity (MIC)
[14] = strain NECO0289, APH(3')-Ia, read-out: Activity (MIC)
[15] = strain NECO0302, AAC(3)-IIa, read-out: Activity (MIC)
[16] = strain NECO0350, AAC(2')-I, read-out: Activity (MIC)
[17] = strain NECO0359, ANT(4')-Ia, read-out: Activity (MIC)
[18] = read-out: Activity (MIC), strain NPAE0006, Efflux KO, Aph(3')-IIb
[19] = read-out: Activity (MIC), strain NPAE0010, MexXY over-expressed, Aph(3')-IIb
[20] = strain NPAE0001, WT Aph(3')-IIb, QC, read-out: Activity (MIC)
[21] = strain NPAE0002, WT Aph(3')-IIb, read-out: Activity (MIC)
[22] = strain NPAE0359, aph(3')-IIb KO (tetR), read-out: Activity (MIC)
[23] = read-out: Activity (MIC), strain NABA0007, ΔadeJK efflux
[24] = strain NABA0006, WT parent, read-out: Activity (MIC)
[25] = strain NABA0020, AME negative strain, read-out: Activity (MIC)

Row | Compound | MIC (E. coli; [8]) [µg/mL] | MIC (E. coli; [9]) [µg/mL] | MIC (E. coli; [10]) [µg/mL] | MIC (E. coli; [11]) [µg/mL] | MIC (E. coli; [12]) [µg/mL] | MIC (E. coli; [13]) [µg/mL] | MIC (E. coli; [14]) [µg/mL] | MIC (E. coli; [15]) [µg/mL] | MIC (E. coli; [16]) [µg/mL] | MIC (E. coli; [17]) [µg/mL] | MIC (P. aeruginosa [1]; [18]) [µg/mL] | MIC (P. aeruginosa [1]; [19]) [µg/mL] | MIC (P. aeruginosa [1]; [20]) [µg/mL] | MIC (P. aeruginosa [1]; [21]) [µg/mL] | MIC (P. aeruginosa [1]; [22]) [µg/mL] | MIC (A. baumannii; [23]) [µg/mL] | MIC (A. baumannii; [24]) [µg/mL] | MIC (A. baumannii; [25]) [µg/mL] | also measured
1 | C[C@@H](N)[C@@H]1CC[C@@H](N)[C@@H](O[C@@H]2[C@@H](N)[C@H](O)[C@@H](NC(=O)[C@@H](O)[C@H](F)CN)[C@H](O)[C@H]2O[C@@H]2O[C@H](CO)[C@@H](O[C@H]3O[C@@H](CN)[C@@H](O)[C@H](O)[C@H]3N)[C@H]2O)O1 [Compound 4, (2R,3R)-4-amino-N-((1R,2S,3S,4R,5R,6S)-3-amino-4-(((2R,3R,6S)-3-amino-6-((R)-1-aminoethyl)tetrahydro-2H-pyran-2-yl)oxy)-5-(((2S,3R,4S,5R)-4-(((2R,3R,4R,5S,6S)-3-amino-6-(aminomethyl)-4,5-dihydroxytetrahydro-2H-pyran-2-yl)oxy)-3-hydroxy-5-(hydroxymethyl)tetrahydrofuran-2-yl)oxy)-2,6-dihydroxycyclohexyl)-3-fluoro-2-hydroxybutanamide] | < 16 | < 16 | < 16 | < 16 | < 16 | < 16 | < 16 | < 16 | < 16 | < 16 | < 16 | < 16 | < 16 | < 16 | < 16 | < 16 | < 16 | < 16 | –
2 | C[C@@H](N)[C@@H]1CC[C@@H](N)[C@@H](O[C@@H]2[C@@H](N)[C@H](O)[C@@H](NC(=O)[C@@H](O)CCN)[C@H](O)[C@H]2O[C@@H]2O[C@H](CO)[C@@H](O[C@H]3O[C@@H](CN)[C@@H](O)[C@H](O)[C@H]3N)[C@H]2O)O1 [Compound 5, (S)-4-Amino-N-((1R,2S,3S,4R,5R,6S)-3-Amino-4-(((2R,3R,6S)-3-Amino-6-((R)-1-Aminoethyl)Tetrahydro-2H-Pyran-2-Yl)Oxy)-5-(((2S,3R,4S,5R)-4-(((2R,3R,4R,5S,6S)-3-Amino-6-(Aminomethyl)-4,5-Dihydroxytetrahydro-2H-Pyran-2-Yl)Oxy)-3-Hydroxy-5-(Hydroxymethyl)Tetrahydrofuran-2-Yl)Oxy)-2,6-Dihydroxycyclohexyl)-2-Hydroxybutanamide] | < 16 | < 16 | < 16 | < 16 | < 16 | < 16 | < 16 | < 16 | < 16 | < 16 | < 16 | < 16 | < 16 | < 16 | < 16 | < 16 | < 16 | < 16 | –
3 | CN[C@@H](C)[C@@H]1CC[C@@H](N)[C@@H](O[C@@H]2[C@@H](N)[C@H](O)[C@@H](NC(=O)[C@@H](O)[C@H](F)CN)[C@H](O)[C@H]2O[C@@H]2O[C@H](CO)[C@@H](O[C@H]3O[C@@H](CN)[C@@H](O)[C@H](O)[C@H]3N)[C@H]2O)O1 [Compound 7, (2R,3R)-4-amino-N-((1R,2S,3S,4R,5R,6S)-3-amino-4-(((2R,3R,6S)-3-amino-6-((S)-1-(methylamino)ethyl)tetrahydro-2H-pyran-2-yl)oxy)-5-(((2S,3R,4S,5R)-4-(((2R,3R,4R,5S,6S)-3-amino-6-(aminomethyl)-4,5-dihydroxytetrahydro-2H-pyran-2-yl)oxy)-3-hydroxy-5-(hydroxymethyl)tetrahydrofuran-2-yl)oxy)-2,6-dihydroxycyclohexyl)-3-fluoro-2-hydroxybutanamide] | < 16 | < 16 | < 16 | < 16 | < 16 | < 16 | > 16 | < 16 | < 16 | < 16 | < 16 | > 16 | < 16 | < 16 | < 16 | < 16 | < 16 | < 16 | –
4 | C[C@H](N)[C@@H]1CC[C@@H](N)[C@@H](O[C@@H]2[C@@H](N)[C@H](O)[C@@H](N)[C@H](O)[C@H]2O[C@@H]2O[C@H](CO)[C@@H](O[C@H]3O[C@@H](CN)[C@@H](O)[C@H](O)[C@H]3N)[C@H]2O)O1 [Compound 8, (2S,3S,4R,5R,6R)-5-amino-2-(aminomethyl)-6-(((2R,3S,4R,5S)-5-(((1R,2R,3S,4R,5R,6S)-3,5-diamino-2-(((2R,3R,6S)-3-amino-6-((S)-1-aminoethyl)tetrahydro-2H-pyran-2-yl)oxy)-4,6-dihydroxycyclohexyl)oxy)-4-hydroxy-2-(hydroxymethyl)tetrahydrofuran-3-yl)oxy)tetrahydro-2H-pyran-3,4-diol] | < 16 | < 16 | < 16 | < 16 | < 16 | < 16 | > 16 | < 16 | < 16 | < 16 | < 16 | < 16 | < 16 | < 16 | < 16 | < 16 | < 16 | > 16 | –
5 | gentamicin [reference compound] | – | – | – | – | – | – | – | – | – | – | – | – | – | – | – | – | – | – | MIC50 (P. aeruginosa [2]): +/+ (+ = MIC50 or MIC90 ≤ 16 μg/mL); MIC90 (P. aeruginosa [2]): +/+ (+ = MIC50 or MIC90 ≤ 16 μg/mL); MIC50 [3]: + (+ = MIC50 or MIC90 ≤ 16 μg/mL); MIC90 [3]: − (− = MIC50 or MIC90 > 16 μg/mL); MIC50 [4]: +/+ (+ = MIC50 or MIC90 ≤ 16 μg/mL); MIC90 [4]: +/+ (+ = MIC50 or MIC90 ≤ 16 μg/mL); MIC50 [5]: + (+ = MIC50 or MIC90 ≤ 16 μg/mL); MIC90 [5]: − (− = MIC50 or MIC90 > 16 μg/mL); MIC50 [6]: +/+ (+ = MIC50 or MIC90 ≤ 16 μg/mL); MIC90 [6]: +/+ (+ = MIC50 or MIC90 ≤ 16 μg/mL); MIC50 [7]: −/− (− = MIC50 or MIC90 > 16 μg/mL); MIC90 [7]: −/− (− = MIC50 or MIC90 > 16 μg/mL)
